Source: patent publication US20260159511A1, “SMALL MOLECULE STING ANTAGONISTS” (CURADEV PHARMA PVT. LTD., priority 2021, published 2026)

Each compound was assayed on IRF pathway in THP1-Dual™ cells, THP-1 (HAQ) (assay: Reporter gene expression assay in THP-1 cells (THP1-Dual, IRF pathway Lucia luciferase reporter, 2′,3′-cGAMP stimulation)). Details: Homo sapiens; THP1-Dual cells preincubated with compound 10 minutes, stimulation with 5 μM 2′,3′-cGAMP for 20 hr, QUANTI-Luc readout of the supernatant; read-out: THP-1 (HAQ) Activity (IC50 value range).
Format: cell-based, human
Protocol: Reporter Gene Expression Assay in THP-1 Cells
THP1-Dual™ cells (Invivogen) were derived from the human THP-1 monocyte cell line by stable integration of two inducible reporter constructs. As a result, THP1-Dual™ cells allow the simultaneous study of the IRF pathway, by assessing the activity of a secreted luciferase (Lucia) and the NF-κB pathway, by monitoring the activity of secreted SEAP. 5×10^4 THP1-Dual™ cells were seeded in 384-well plates in growth medium and preincubated with novel compounds for 10 minutes followed by stimulation with 5 μM 2′,3′-cGAMP. After 20 hr of stimulation the supernatant was removed and the IRF pathway reporter protein was readily measured in the cell culture supernatant using QUANTI-Luc™ (Invivogen), a luciferase detection reagent on a Spectramax i3X luminometer.

| IC50 | SMILES |
| --- | --- |
| < 1000 nM | O=C(Nc1ccc2c(c1)N(Cc1ccccc1)C(=O)CS2)Nc1c[nH]c2ccc(F)cc12 [Example 1, 1-(4-benzyl-3-oxo-3,4-dihydro-2H-benzo[b][1,4]thiazin-6-yl)-3-(5-fluoro-1H-indol-3-yl)urea] |
| < 1000 nM | O=C(Nc1ccc2c(c1)SCC(=O)N2Cc1ccccc1)Nc1c[nH]c2ccccc12 [Example 7, 1-(4-benzyl-3-oxo-3,4-dihydro-2H-benzo[b][1,4]thiazin-7-yl)-3-(1H-indol-3-yl)urea] |
| < 1000 nM | O=C(Nc1ccc2c(c1)N(Cc1ccccc1)C(=O)CS2)Nc1c[nH]c2ccc(Cl)cc12 [Example 10, 1-(4-benzyl-3-oxo-3,4-dihydro-2H-benzo[b][1,4]thiazin-6-yl)-3-(5-chloro-1H-indol-3-yl)urea] |
| < 1000 nM | O=C(Nc1ccc2c(c1)N(Cc1c(F)cccc1Cl)C(=O)CS2)Nc1c[nH]c2ccccc12 [Example 11, 1-(4-(2-chloro-6-fluorobenzyl)-3-oxo-3,4-dihydro-2H-benzo[b][1,4]thiazin-6-yl)-3-(1H-indol-3-yl)urea] |
| < 1000 nM | O=C(Nc1ccc2c(c1)N(Cc1ccccc1)C(=O)CS2)Nc1c[nH]c2ncccc12 [Example 13, 1-(4-benzyl-3-oxo-3,4-dihydro-2H-benzo[b][1,4]thiazin-6-yl)-3-(1H-pyrrolo[2,3-b]pyridin-3-yl)urea] |
| 1000 to 10000 nM | O=C(Nc1ccc2c(c1)N(Cc1ccccc1)C(=O)CS2)Nc1c[nH]c2ccncc12 [Example 14, 1-(4-benzyl-3-oxo-3,4-dihydro-2H-benzo[b][1,4]thiazin-6-yl)-3-(1H-pyrrolo[3,2-c]pyridin-3-yl)urea] |
| < 1000 nM | O=C(Nc1ccc2c(c1)N(Cc1ccccc1)C(=O)CS2)Nc1c[nH]c2cnccc12 [Example 15, 1-(4-benzyl-3-oxo-3,4-dihydro-2H-benzo[b][1,4]thiazin-6-yl)-3-(1H-pyrrolo[2,3-c]pyridin-3-yl)urea] |
| 1000 to 10000 nM | O=C(Nc1ccc2c(c1)N(Cc1ccccc1)C(=O)CS2)Nc1c[nH]c2cccnc12 [Example 17, 1-(4-benzyl-3-oxo-3,4-dihydro-2H-benzo[b][1,4]thiazin-6-yl)-3-(1H-pyrrolo[3,2-b]pyridin-3-yl)urea] |
| < 1000 nM | O=C(Nc1ccc2c(c1)N(Cc1cc(F)cc(F)c1)C(=O)CS2)Nc1c[nH]c2ccccc12 [Example 18, 1-(4-(3,5-difluorobenzyl)-3-oxo-3,4-dihydro-2H-benzo[b][1,4]thiazin-6-yl)-3-(1H-indol-3-yl)urea] |
| 1000 to 10000 nM | O=C(Nc1ccc2c(c1)N(Cc1ccccn1)C(=O)CS2)Nc1c[nH]c2ccccc12 [Example 19, 1-(1H-indol-3-yl)-3-(3-oxo-4-(pyridin-2-ylmethyl)-3,4-dihydro-2H-benzo[b][1,4]thiazin-6-yl)urea] |
| 1000 to 10000 nM | O=C(Nc1ccc2c(c1)N(Cc1ccncc1)C(=O)CS2)Nc1c[nH]c2ccccc12 [Example 20, 1-(1H-indol-3-yl)-3-(3-oxo-4-(pyridin-4-ylmethyl)-3,4-dihydro-2H-benzo[b][1,4]thiazin-6-yl)urea] |
| 1000 to 10000 nM | NC(=O)c1cccc(CN2C(=O)CSc3ccc(NC(=O)Nc4c[nH]c5ccccc45)cc32)c1 [Example 21, 3-((6-(3-(1H-indol-3-yl)ureido)-3-oxo-2,3-dihydro-4H-benzo[b][1,4]thiazin-4-yl)methyl)benzamide] |
| 1000 to 10000 nM | NC(=O)c1ccccc1CN1C(=O)CSc2ccc(NC(=O)Nc3c[nH]c4ccccc34)cc21 [Example 22, 2-((6-(3-(1H-indol-3-yl)ureido)-3-oxo-2,3-dihydro-4H-benzo[b][1,4]thiazin-4-yl)methyl)benzamide] |
| 1000 to 10000 nM | NC(=O)c1ccc(CN2C(=O)CSc3ccc(NC(=O)Nc4c[nH]c5ccccc45)cc32)cc1 [Example 23, 4-((6-(3-(1H-indol-3-yl)ureido)-3-oxo-2,3-dihydro-4H-benzo[b][1,4]thiazin-4-yl)methyl)benzamide] |
| 1000 to 10000 nM | O=C(Nc1ccc2c(c1)N(Cc1cccnc1)C(=O)CS2)Nc1c[nH]c2ccccc12 [Example 24, 1-(1H-indol-3-yl)-3-(3-oxo-4-(pyridin-3-ylmethyl)-3,4-dihydro-2H-benzo[b][1,4]thiazin-6-yl)urea] |
| < 1000 nM | O=C(Nc1ccc2c(c1)N(Cc1noc3ccccc13)C(=O)CS2)Nc1c[nH]c2ccccc12 [Example 26, 1-(4-(benzo[d]isoxazol-3-ylmethyl)-3-oxo-3,4-dihydro-2H-benzo[b][1,4]thiazin-6-yl)-3-(1H-indol-3-yl)urea] |
| < 1000 nM | O=C(Nc1ccc2c(c1)N(Cc1c(F)ccc(O)c1Cl)C(=O)CS2)Nc1c[nH]c2ccccc12 [Example 34, 1-(4-(2-chloro-6-fluoro-3-hydroxybenzyl)-3-oxo-3,4-dihydro-2H-benzo[b][1,4]thiazin-6-yl)-3-(1H-indol-3-yl)urea] |

Second part, the compound before the results:

| SMILES | IC50 |
| --- | --- |
| O=C(Nc1ccc2c(c1)OCC(=O)N2Cc1c(F)cccc1Cl)Nc1c[nH]c2ccccc12 [Example 2, 1-(4-(2-Chloro-6-fluorobenzyl)-3-oxo-3,4-dihydro-2H-benzo[b][1,4]oxazin-7-yl)-3-(1H-indol-3-yl)urea] | < 1000 nM |
| O=C(Nc1ccc2c(c1)OCC(=O)N2Cc1ccccc1)Nc1c[nH]c2ccccc12 [Example 3, 1-(4-benzyl-3-oxo-3,4-dihydro-2H-benzo[b][1,4]oxazin-7-yl)-3-(1H-indol-3-yl)urea] | < 1000 nM |
| O=C(Nc1ccc2c(c1)N(Cc1ccccc1)C(=O)CO2)Nc1c[nH]c2ccccc12 [Example 4, 1-(4-benzyl-3-oxo-3,4-dihydro-2H-benzo[b][1,4]oxazin-6-yl)-3-(1H-indol-3-yl)urea] | < 1000 nM |
| O=C(Nc1ccc2c(c1)N(Cc1ccccc1)C(=O)CS2)Nc1c[nH]c2ncc(Cl)cc12 [Example 5, 1-(4-benzyl-3-oxo-3,4-dihydro-2H-benzo[b][1,4]thiazin-6-yl)-3-(5-chloro-1H-pyrrolo[2,3-b]pyridin-3-yl)urea] | < 1000 nM |
| O=C(Nc1ccc2c(c1)N(Cc1ccccc1)C(=O)CS2)Nc1c[nH]c2ncc(Br)cc12 [Example 6, 1-(4-benzyl-3-oxo-3,4-dihydro-2H-benzo[b][1,4]thiazin-6-yl)-3-(5-bromo-1H-pyrrolo[2,3-b]pyridin-3-yl)urea] | < 1000 nM |
| O=C(Nc1ccc2c(c1)N(Cc1c(F)cccc1Cl)C(=O)CO2)Nc1c[nH]c2ccccc12 [Example 8, 1-(4-(2-chloro-6-fluorobenzyl)-3-oxo-3,4-dihydro-2H-benzo[b][1,4]oxazin-6-yl)-3-(1H-indol-3-yl)urea] | < 1000 nM |
| Cc1[nH]c2ccccc2c1NC(=O)Nc1ccc2c(c1)N(Cc1ccccc1)C(=O)CS2 [Example 9, 1-(4-benzyl-3-oxo-3,4-dihydro-2H-benzo[b][1,4]thiazin-6-yl)-3-(2-methyl-1H-indol-3-yl)urea] | 1000 to 10000 nM |
| O=C(Nc1ccc2c(c1)SCC(=O)N2Cc1c(F)cccc1Cl)Nc1c[nH]c2ccccc12 [Example 12, 1-(4-(2-chloro-6-fluorobenzyl)-3-oxo-3,4-dihydro-2H-benzo[b][1,4]thiazin-7-yl)-3-(1H-indol-3-yl)urea] | < 1000 nM |
| CN1C(=O)CSc2ccc(NC(=O)Nc3c[nH]c4ccccc34)cc21 [Example 16, 1-(1H-indol-3-yl)-3-(4-methyl-3-oxo-3,4-dihydro-2H-benzo[b][1,4]thiazin-6-yl)urea] | < 1000 nM |
| COc1ccc(F)c(CN2C(=O)CSc3ccc(NC(=O)Nc4c[nH]c5ccccc45)cc32)c1Cl [Example 25, 1-(4-(2-chloro-6-fluoro-3-methoxybenzyl)-3-oxo-3,4-dihydro-2H-benzo[b][1,4]thiazin-6-yl)-3-(1H-indol-3-yl)urea] | < 1000 nM |
| CC1Sc2ccc(NC(=O)Nc3c[nH]c4ccccc34)cc2N(Cc2c(F)cccc2Cl)C1=O (stereo not shown) [Example 27, 1-(4-(2-chloro-6-fluorobenzyl)-2-methyl-3-oxo-3,4-dihydro-2H-benzo[b][1,4]thiazin-6-yl)-3-(1H-indol-3-yl)urea] | < 1000 nM |
| O=C(Nc1ccc2c(c1)N(Cc1c(F)cccc1Cl)C(=O)CS2)Nc1c[nH]c2ccc(Cl)cc12 [Example 28, 1-(5-chloro-1H-indol-3-yl)-3-(4-(2-chloro-6-fluorobenzyl)-3-oxo-3,4-dihydro-2H-benzo[b][1,4]thiazin-6-yl)urea] | 1000 to 10000 nM |
| CC1Sc2ccc(NC(=O)Nc3c[nH]c4ccccc34)cc2N(Cc2ccccc2)C1=O (stereo not shown) [Example 29, 1-(4-benzyl-2-methyl-3-oxo-3,4-dihydro-2H-benzo[b][1,4]thiazin-6-yl)-3-(1H-indol-3-yl)urea] | < 1000 nM |
| CC1Sc2cc(NC(=O)Nc3c[nH]c4ccccc34)ccc2N(Cc2ccccc2)C1=O (stereo not shown) [Example 30, 1-(4-benzyl-2-methyl-3-oxo-3,4-dihydro-2H-benzo[b][1,4]thiazin-7-yl)-3-(1H-indol-3-yl)urea] | < 1000 nM |
| CC1Sc2ccc(NC(=O)Nc3c[nH]c4ccc(F)cc34)cc2N(Cc2cc(F)cc(F)c2)C1=O (stereo not shown) [Example 31, 1-(4-(3,5-difluorobenzyl)-2-methyl-3-oxo-3,4-dihydro-2H-benzo[b][1,4]thiazin-6-yl)-3-(5-fluoro-1H-indol-3-yl)urea] | < 1000 nM |
| O=C(Nc1ccc2c(c1)N(Cc1cc(F)cc(F)c1)C(=O)CS2)Nc1c[nH]c2ccc(F)cc12 [Example 32, 1-(4-(3,5-difluorobenzyl)-3-oxo-3,4-dihydro-2H-benzo[b][1,4]thiazin-6-yl)-3-(5-fluoro-1H-indol-3-yl)urea] | < 1000 nM |
| CC1Sc2ccc(NC(=O)Nc3c[nH]c4ccccc34)cc2N(Cc2cc(F)cc(F)c2)C1=O (stereo not shown) [Example 33, 1-(4-(3,5-difluorobenzyl)-2-methyl-3-oxo-3,4-dihydro-2H-benzo[b][1,4]thiazin-6-yl)-3-(1H-indol-3-yl)urea] | < 1000 nM |
